Measurements as given in ChEMBL document CHEMBL1268926, “An o-aminoanilide analogue of 1α,25-dihydroxyvitamin D(3) functions as a strong vitamin D receptor antagonist” (J Med Chem, 2010).
The source made the active and inactive calls. The calls are words filed in the database; no cut-off is given here.

How the values were obtained:
Vitamin D3 receptor = biological target: T1, Vitamin D3 receptor (Homo sapiens, UniProt P11473); experiment: Binding affinity to VDR-LBD by fluorescence polarization competition assay
T1 sequence (P11473 whole entry): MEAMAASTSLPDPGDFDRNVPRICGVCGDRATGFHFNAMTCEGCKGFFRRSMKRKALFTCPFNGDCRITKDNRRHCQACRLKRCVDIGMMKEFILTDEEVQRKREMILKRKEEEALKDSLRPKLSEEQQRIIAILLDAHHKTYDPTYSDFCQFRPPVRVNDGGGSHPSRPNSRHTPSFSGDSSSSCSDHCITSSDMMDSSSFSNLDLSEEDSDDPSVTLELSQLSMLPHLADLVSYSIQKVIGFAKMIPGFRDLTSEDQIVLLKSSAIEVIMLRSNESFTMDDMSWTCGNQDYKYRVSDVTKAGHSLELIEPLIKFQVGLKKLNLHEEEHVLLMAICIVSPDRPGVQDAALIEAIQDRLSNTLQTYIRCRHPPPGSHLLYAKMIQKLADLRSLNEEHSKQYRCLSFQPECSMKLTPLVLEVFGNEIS

Tubulin (Homo sapiens) = Tubulin (Homo sapiens) (UniProt P68371+Q9H4B7+P0DPH7+P68366+Q13509+Q71U36+P04350+Q3ZCM7+P07437+P68363+Q9BQE3+Q6PEY2+Q13885+Q9BVA1+Q9BUF5); experiment: Inhibition of HDAC in human SCC25 cells assessed as hyperacetylation of tubulin at 1 uM by Western blotting; assay type: cell-based; details: SCC-25
[1] = biological target: Histone deacetylase (Homo sapiens) (UniProt Q13547+O15379+Q9UBN7+Q92769+Q9UQL6+Q8WUI4+Q9BY41+Q96DB2+P56524+Q9UKV0+Q969S8); experiment: Inhibition of HDAC in human SCC4 cells assessed as hyperacetylation of histone H4 at 1 uM by Western blotting; details: SCC-4
[2] = biological target: T2, Vitamin D3 receptor (Homo sapiens) (UniProt P11473); experiment: Agonist activity at VDR in human SCC25 cells assessed as induction of CYP24 expression at 1 to 10 uM by semiquantitative analysis; assay type: functional, cell-based; details: SCC-25
T2 sequence (whole entry): T1 sequence (P11473 whole entry)

[3] = biological target: T2, Vitamin D3 receptor (Homo sapiens); experiment: Agonist activity at VDR in human SCC25 cells assessed as induction of CYP24 expression at 1 to 10 uM by RT-PCR analysis; assay type: functional, cell-based; details: SCC-25
[4] = biological target: T3, Protein deacetylase HDAC6 (Homo sapiens) (UniProt Q9UBN7); experiment: Inhibition of human recombinant HDAC6 up to 1 mM by fluorescence assay
T3 sequence (whole entry): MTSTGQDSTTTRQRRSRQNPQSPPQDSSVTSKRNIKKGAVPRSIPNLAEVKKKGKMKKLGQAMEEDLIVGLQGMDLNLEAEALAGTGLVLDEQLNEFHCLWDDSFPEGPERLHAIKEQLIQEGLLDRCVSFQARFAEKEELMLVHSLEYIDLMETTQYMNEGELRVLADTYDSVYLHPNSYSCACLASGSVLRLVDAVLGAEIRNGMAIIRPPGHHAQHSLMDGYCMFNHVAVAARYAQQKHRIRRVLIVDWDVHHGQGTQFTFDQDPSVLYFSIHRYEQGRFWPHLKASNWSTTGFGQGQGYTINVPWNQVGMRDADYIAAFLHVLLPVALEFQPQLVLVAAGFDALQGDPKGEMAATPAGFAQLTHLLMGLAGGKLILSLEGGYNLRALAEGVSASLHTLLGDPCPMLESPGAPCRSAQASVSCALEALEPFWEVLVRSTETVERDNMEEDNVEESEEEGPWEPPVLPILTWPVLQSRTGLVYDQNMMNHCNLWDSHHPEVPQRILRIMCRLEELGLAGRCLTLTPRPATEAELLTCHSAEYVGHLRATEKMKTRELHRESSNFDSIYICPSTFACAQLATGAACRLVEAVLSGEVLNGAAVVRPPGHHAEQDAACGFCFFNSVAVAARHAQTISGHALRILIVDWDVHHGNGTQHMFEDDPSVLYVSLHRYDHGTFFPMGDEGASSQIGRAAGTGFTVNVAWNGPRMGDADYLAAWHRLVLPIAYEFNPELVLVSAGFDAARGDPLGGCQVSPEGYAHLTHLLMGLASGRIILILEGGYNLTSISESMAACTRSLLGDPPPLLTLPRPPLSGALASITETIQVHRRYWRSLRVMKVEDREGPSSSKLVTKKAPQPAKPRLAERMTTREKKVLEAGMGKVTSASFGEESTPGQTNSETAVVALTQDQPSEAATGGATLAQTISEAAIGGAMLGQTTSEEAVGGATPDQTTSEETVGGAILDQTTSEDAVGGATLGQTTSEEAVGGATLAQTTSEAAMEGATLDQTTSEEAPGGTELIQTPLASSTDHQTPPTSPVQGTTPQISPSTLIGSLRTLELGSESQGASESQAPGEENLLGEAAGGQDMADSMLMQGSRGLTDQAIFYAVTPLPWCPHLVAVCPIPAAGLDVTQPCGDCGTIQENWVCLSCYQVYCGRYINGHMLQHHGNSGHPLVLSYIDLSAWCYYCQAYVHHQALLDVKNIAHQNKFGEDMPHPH

[5] = biological target: T2, Vitamin D3 receptor (Homo sapiens); details: 1uM
Description: Inhibition of VDR agonist-mediated AIB1 recruitment to CYP24 promoter in ChIP assay at 1uM

C[C@H](CCCCC(=O)Nc1ccccc1N)[C@H]1CC[C@H]2/C(=C/C=C3C[C@@H](O)C[C@H](O)C3)CCC[C@]12C
IC50 (Vitamin D3 receptor): 248 nM | inhibition (Tubulin (Homo sapiens)): Active | inhibition [1]: Active

C=C1/C(=C\C=C2/CCC[C@]3(C)[C@@H]([C@H](C)/C=C/[C@@H](O)C4(C(=O)OCCCC)CC4)CC[C@@H]23)C[C@@H](O)C[C@@H]1O
Activity [2]: Active | Activity [3]: Active

CC(/C=C/C(=O)Nc1ccccc1N)=C\[C@@H](C)[C@H]1CC[C@H]2/C(=C/C=C3CC(O)C[C@H](O)C3)CCC[C@]12C (single isomer, unassigned)
IC50 (Vitamin D3 receptor): 107 nM | Activity [2]: inactive | Activity [3]: inactive | inhibition (Tubulin (Homo sapiens)): inactive | inhibition [4]: inactive | inhibition [5]: Active | inhibition [1]: inactive
